Bridge positions count the residues as written; N and C are the ends. Square brackets hold non-standard residues; d marks the D form. Peptide text beside a SMILES is read from it. * marks the point of attachment. Ileψ(thiazoline)Cys = CC[C@H](C)[C@H](N)C1=N[C@H](C(=O)*)CS1; dOrn = NCCC[C@@H](N)C(=O)O

Experiment [1] relates to herpes simplex virus type 1 (HSV-1). The conditions noted are these: bacitracin used alone; reported by Alarcon et al.; cited from earlier work.
The subject of experiment [2] is HSV-2 (strain HG-52). Description: Inhibition of HSV-2 replication in serum-starved BHK 21/C13 cells (cell culture technique, virus titration). Conditions: for PFU per cell for control/PFU per cell for agent: 30 hours post infection; for PFU PER CELL: infected BHK 21/C13 cells harvested 30 hours post infection, control 67.00. Format: cell-based. Here is the method: This method in a modified form is exemplified hereinafter.
(a) Preparation of serum-starved cells: A medium composed of alpha medium (Gibco Canada Inc, Burlington, Ontario, Canada) and fetal calf serum (Gibco Canada Inc.), in a 9:1 volume ratio, was placed in tissue culture dishes (35 mm, A/S Nunc, Kamstrup, Denmark). The medium in each dish was seeded with BHK 21/C13 cells (1.5 ×10^6 for each dish). (BHK 21/C13 cells have been described by Y. Langelier and G. Buttin, J. Gen. Virol., 57, 21 (1981)). After 6 hours, the medium was replaced with a new medium composed of alpha medium and fetal calf serum (99.5:0.5 v/v). The resultant preparation was incubated at 37° C. for 4 days.
(b) Cell infection in BBMT medium* without serum: The incubation medium was removed from the cells. The cells were washed twice with alpha medium (without the serum) and once with the BBMT medium. The cells were then incubated at 37° C. in BBMT medium for two hours. A series of viral solutions were prepared from a stock of HSV-2 (strain HG-52, described by Langelier and Buttin, supra) and the appropriate choice and amounts of the agents to be tested, diluted with BBMT to give viral solutions having a multiplicity of infection of 0.02 plaque forming units (PFU) per cell. A control viral solution (without any agent) also was prepared. Each viral solution (250 μl) was added to duplicate dishes containing the previously prepared cells in BBMT medium. After one hour of incubation at 37° C. for virus absorption, the medium in each dish was removed by aspiration. The cells were washed twice with BBMT medium. Fresh BBMT medium (800 μl), with or without (control) the appropriate concentration of the test agent, was added to the dishes which were further incubated at 37° C. Every six hours, a concentrated solution of bacitracin in BBMT was added to the appropriate dishes to maintain the initial concentration of that agent.
*BBMT medium is described by P. Brazeau et al., Proc. Natl. Acad. Sci. USA, 79, 7909 (1982).
(c) Harvesting: At 30 hours post-infection, cells were detached with a rubber policeman and frozen at -80° C. until titration.
(d) Titration: Virus titration were performed according to the method of B. B. Wentworth and L. French, Proc. Soc. Exp. Biol. Med., 131, 588 (1969).
The following table is illustrative of the results obtained when acyclovir, bacitracin and combinations thereof were tested for activity according to the preceding method. Results are expressed in PFU per cell for infected cells harvested at 30 hours post infection. The lower the PFU per cell value, the greater the inhibitory effect on viral replication of the tested agent.

As to `CC[C@H](C)[C@H](N)C1=N[C@H](C(=O)N[C@@H](CC(C)C)C(=O)N[C@H](CCC(=O)O)C(=O)N[C@H](C(=O)N[C@H]2CCCCNC(=O)[C@H](CC(N)=O)NC(=O)[C@@H](CC(=O)O)NC(=O)[C@H](Cc3cnc[nH]3)NC(=O)[C@@H](Cc3ccccc3)NC(=O)[C@H]([C@@H](C)CC)NC(=O)[C@@H](CCCN)NC2=O)[C@@H](C)CC)CS1` [Bacitracin] ({Ileψ(thiazoline)Cys}-L[dE]IK[dOrn]I[dF]H[dD]N; lactam 4-C), the “activity against herpes simplex virus type 1 (HSV-1)” value in experiment [1] was “inactive”. For the same compound, the “PFU per cell for control/PFU per cell for agent” value (from here on “PFU per cell for control/PFU”) in experiment [2] (Bacitracin 0.25 mM) was 62.0; in experiment [2] (Bacitracin 0.50 mM) it was 515.0; in experiment [2] (Bacitracin 0.75 mM), 4786.0; in experiment [2] (Bacitracin 1.00 mM), 8375.0. Further, the “PFU PER CELL” value in experiment [2] (Bacitracin 0.25 mM) was 1.08 PFU per cell; in experiment [2] (Bacitracin 0.50 mM), 0.13 PFU per cell; in experiment [2] (Bacitracin 0.75 mM), 0.014 PFU per cell; in experiment [2] (Bacitracin 1.00 mM), 0.008 PFU per cell.

Consider `Nc1nc2c(ncn2COCCO)c(=O)[nH]1` [Acyclovir, 9-((2-hydroxyethoxy)methyl)guanine], for which, in experiment [2] (Acyclovir 0.50 μM), the “PFU per cell for control/PFU” value was 3.96 and the “PFU PER CELL” value was 16.9 PFU per cell. Besides, in experiment [2] (Acyclovir 2.00 μM), the “PFU per cell for control/PFU” value worked out at 13.67 and the “PFU PER CELL” value came to 4.9 PFU per cell.

The values are drawn from patent publication US5002932A, “Antiviral pharmaceutical compositions and method of treating herpes” (priority 1987, dated 1991).
